As a reminder, the IC50 is the concentration needed to halve the response being measured.

Six compounds from patent publication US8946237B2, “Pyrazolo[1,5-A]pyrimidines as mark inhibitors” (Merck Sharp & Dohme Corp., priority 2010, dated 2015) can be followed below.

One assay deals with T1, MARK3 (Homo sapiens, UniProt P27448).
T1 construct: purchased University of Dundee
Put plainly: MARK 3 Assay (HTRF, Cdc25C biotinylated peptide substrate). The class given is biochemical. The following applies: 10 μM ATP, 10 nM recombinant MARK3 enzyme. As for the experimental part:
MARK3 activity was assayed in vitro using a Cdc25C biotinylated peptide substrate (Cell Signalling Technologies). The phosphopeptide product was quantitated using a Homogenous Time-Resolved Fluorescence (HTRF) assay system (Park et al., 1999, Anal. Biochem. 269:94-104). The reaction mixture contained 50 mM HEPES/Tris-HCl, pH 7.4; 10 mM NaCl, 5 mM MgCl2, 0.2 mM NaVO4, 5 mM β-glycerol phosphate, 0.1% Tween-20, 2 mM dithiothreitol, 0.1% BSA, 10 μM ATP, 1 μM peptide substrate, and 10 nM recombinant MARK3 enzyme (University of Dundee) in a final volume of 12 μL. The buffer additionally contained protease inhibitor cocktail (Roche EDTA-free, 1 tab per 50 ml). The kinase reaction was incubated for 2 hours at 25° C., and then terminated with 3 μl Stop/Detection Buffer (50 mM HEPES, pH 7.0, 16.6 mM EDTA, 0.5M KF, 0.1% Tween-20, 0.1% BSA, 2 μg/ml SLX^ent 665 (CISBIO), and 2 μg/mL Eu^3+ cryptate label antibody (CISBIO)). The reaction was allowed to equilibrate overnight at 0° C., and relative fluorescent units were read on an HTRF enabled plate reader (e.g. TECAN GENios Pro).
Inhibitor compounds were assayed in the reaction described above to determine compound IC50s. Aliquots of compound dissolved in DMSO were added to the reaction wells in a third-log dilution series covering a range of 1 nM to 10 μM. Relative phospho substrate formation, read as HTRF fluorescence units, was measured over the range of compound concentrations and a titration curve generated.
A general note: Time-resolved FRET reads energy transfer from a long-lived donor to a nearby acceptor.

Assay [1] can be described thus: Mean Arterial Pressure in anesthetized dogs. The format is in vivo. The source says:
The compounds of Formula I disclosed herein are also useful as blood pressure lowering agents and thus useful for the treating hypertension. Arterial hypertension has been identified as a strong causal factor in cardiovascular disease. An embodiment of the invention encompasses a method for treating or preventing cardiovascular disease comprising administering to a patient in need thereof a compound of Formula I, either as a single agent or in combination with other standard of care agents. It is postulated that compounds of the invention lower blood pressure by interfering with binding of tau and other microtubule associated proteins (MAP) to microtubules. Inhibiting the depolymerization of tubulin is the proposed cause of vasorelaxation leading to blood pressure lowering. […] Example 4 disclosed herein lowered Mean Arterial Pressure by 25% when it was dosed at 5 mg/kg cumulatively over the course of 90 minutes in anesthetized dogs. Example 9 disclosed herein lowered Mean Arterial Pressure by 89% when it was dosed at 10 mg/kg cumulatively over the course of 90 minutes in anesthetized dogs.

T1 sequence (P27448 whole entry, species assumed): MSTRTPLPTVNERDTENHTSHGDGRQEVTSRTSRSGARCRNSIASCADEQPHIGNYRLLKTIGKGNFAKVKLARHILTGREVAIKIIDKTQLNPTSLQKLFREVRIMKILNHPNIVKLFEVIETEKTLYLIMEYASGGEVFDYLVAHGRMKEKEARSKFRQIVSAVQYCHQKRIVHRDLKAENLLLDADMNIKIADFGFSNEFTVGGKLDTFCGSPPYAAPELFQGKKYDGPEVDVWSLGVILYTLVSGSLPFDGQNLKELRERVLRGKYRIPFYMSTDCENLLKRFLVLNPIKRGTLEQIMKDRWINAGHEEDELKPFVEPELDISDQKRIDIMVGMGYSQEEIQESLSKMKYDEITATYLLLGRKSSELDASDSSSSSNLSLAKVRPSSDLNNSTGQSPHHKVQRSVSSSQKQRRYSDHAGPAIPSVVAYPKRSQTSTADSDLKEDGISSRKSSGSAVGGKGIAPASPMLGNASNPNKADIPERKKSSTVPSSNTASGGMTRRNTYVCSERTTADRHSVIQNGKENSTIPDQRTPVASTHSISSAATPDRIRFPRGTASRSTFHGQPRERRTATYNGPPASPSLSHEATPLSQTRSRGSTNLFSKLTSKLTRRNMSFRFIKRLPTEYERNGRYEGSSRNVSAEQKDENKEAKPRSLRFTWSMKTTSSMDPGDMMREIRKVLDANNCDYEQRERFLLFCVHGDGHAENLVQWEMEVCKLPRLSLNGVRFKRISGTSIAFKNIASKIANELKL

As for `CCc1sc(C(=O)N[C@@H]2[C@@H](N)CCCC2(F)F)cc1-c1cnn2cc(Cl)cnc12` [Example 4, N-[(1R,6S)-6-Amino-2,2-difluorocyclohexyl]-4-(6-chloropyrazolo[1,5-a]pyrimidin-3-yl)-5-ethylthiophene-2-carboxamide], the IC50 on MARK3 was determined as 27 nM. The “lowered Mean Arterial Pressure” value in assay [1] (5 mg/kg cumulatively over the course of 90 minutes) is on record as 25%.

On to `CCc1sc(C(=O)N[C@@H]2[C@@H](N)CCCC2(F)F)cc1-c1cnn2cc(C(F)(F)F)cnc12` [Example 6, N-[(1R,6S)-6-Amino-2,2-difluorocyclohexyl]-5-ethyl-4-[6-(trifluoromethyl)pyrazolo[1,5-a]pyrimindin-3-yl]thiophene-2-carboxamide], for which the IC50 on MARK3 turned out to be 73 nM.

Turning to `Cc1sc(C(=O)N[C@@H]2[C@H](N)CCCC2(F)F)cc1-c1cnn2cc(OC(F)F)cnc12` [Example 9, N-[(1R,6R)-6-Amino-2,2-difluorocyclohexyl]-4-[6-(difluoromethoxy)pyrazolo[1,5-a]pyrimidin-3-yl]-5-methylthiophene-2-carboxamide], the IC50 on MARK3 amounted to 3 nM. The “lowered Mean Arterial Pressure” value in assay [1] (10 mg/kg cumulatively over the course of 90 minutes) worked out at 89%.

As for `Cc1sc(C(=O)N[C@@H]2[C@@H](N)CCCC2(F)F)cc1-c1cnn2cc(OC(F)F)cnc12` [Example 10, N-[(1R,6S)-6-amino-2,2-difluorocyclohexyl]-4-[6-(difluoromethoxy)pyrazolo[1,5-a]pyrimidin-3-yl]-5-methylthiophene-2-carboxamide], at MARK3, the IC50 was 5 nM.

Regarding `CCOc1cnc2c(-c3cc(C(=O)N[C@@H]4[C@H](N)CCCC4(F)F)sc3CC)cnn2c1` [Example 15, N-[(1R,6R)-6-amino-2,2-difluorocyclohexyl]-4-(6-ethoxypyrazolo[1,5-a]pyrimidin-3-yl)-5-ethylthiophene-2-carboxamide], the IC50 on MARK3 was 2 nM.

As for `Cc1sc(C(=O)N[C@@H]2CCCC[C@@H]2N)cc1-c1cnn2cc(-c3cnn(C)c3)cnc12` [reference compound], the IC50 at MARK3 turned out to be 1 nM.
